Consider eleven molecules from PubChem BioAssay (NCI).

Values joined by “and” are separate entries in the source; they are usually repeats but may differ in a detail not shown here. Equal entries are not always repeated.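 96-well plates; 48 h exposure; 5 concentrations. Endpoints by linear interpolation between flanking doses. Not reached: highest tested concentration assigned. At the GI50, growth is halved. At the TGI there is no net growth.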

Test systems include HOP-62 NSCLC; M14 melanoma; SK-MEL-28 melanoma; NCI-H226 lung; SF-268 CNS; 786-0 renal; SNB-19 CNS; U251 CNS.
Test in all cases: NCI tumour cell line growth inhibition, 48 h

Consider `O=C1CC(NC(=O)C(F)(F)F)c2c1csc2Br` (stereo not drawn), for which the TGI was more than 100 µM with HOP-62 NSCLC; more than 100 µM in the experiment on M14 melanoma; more than 100 µM in the experiment on SK-MEL-28 melanoma; more than 100 µM with NCI-H226 lung; 62.3 µM in the experiment on SF-268 CNS; 83.1 µM in the experiment on 786-0 renal. Further, the TGI in the experiment on SNB-19 CNS and in the experiment on U251 CNS was more than 100 µM each time.

For the molecule `CSc1ccc(C2=NN(C(=O)c3ccc(F)cc3)C(c3ccc(F)cc3)C2)cc1` (stereo not drawn), the GI50 in the experiment with HOP-62 NSCLC is 18.4 µM; with M14 melanoma, 9.43 µM; in the experiment with SK-MEL-28 melanoma it was 18.3 µM; with NCI-H226 lung it was 13.4 µM; with SF-268 CNS it was 2.69 µM; with 786-0 renal, 15.5 µM. The GI50 is 14.3 µM in the experiment on SNB-19 CNS and 4.54 µM with U251 CNS. In addition, the TGI in the experiment on HOP-62 NSCLC was determined as 33.7 µM; with M14 melanoma, 22.1 µM; in the experiment on SK-MEL-28 melanoma it was 32.6 µM; in the experiment with NCI-H226 lung, 34.3 µM; with SF-268 CNS it was 13.4 µM; in the experiment on 786-0 renal, 30.7 µM. In addition, the figures for the TGI in the experiment with SNB-19 CNS and with U251 CNS were 27.5 µM and 15.5 µM, respectively.

Consider `COc1cc(OC)c(/C=C/S(=O)(=O)Cc2cnc(OC)c(N)c2)c(OC)c1`, for which the GI50 is less than 0.0185 µM in the experiment on HOP-62 NSCLC; less than 0.0173 µM in the experiment on M14 melanoma; 20.4 µM in the experiment on SK-MEL-28 melanoma; more than 40.1 µM in the experiment on NCI-H226 lung; less than 0.0328 µM in the experiment on SF-268 CNS; less than 0.031 µM with 786-0 renal. Further, the GI50 was less than 0.0223 µM in the experiment on SNB-19 CNS and less than 0.0224 µM in the experiment with U251 CNS. For the same molecule, the TGI with HOP-62 NSCLC, in the experiment on M14 melanoma, in the experiment on SK-MEL-28 melanoma, with NCI-H226 lung, with SF-268 CNS and in the experiment with 786-0 renal was more than 100 µM in each case. In addition, the TGI in the experiment with SNB-19 CNS and with U251 CNS was more than 100 µM each time.

On to `CCN(CC)c1cc2c3c(c1)CCCN3CCC2`, for which the TGI with HOP-62 NSCLC, with M14 melanoma, in the experiment on SK-MEL-28 melanoma, in the experiment with NCI-H226 lung, with SF-268 CNS and in the experiment with 786-0 renal was more than 10 µM in each case. Further, the TGI with SNB-19 CNS and with U251 CNS was more than 10 µM throughout.

On to `CCN1CCN(C(=O)[C@]23CC[C@@H](C)[C@H](C)[C@@H]2C2=CC[C@@H]4[C@@]5(C)C/C(=C/c6ccncc6)C(=O)C(C)(C)[C@@H]5CC[C@@]4(C)[C@]2(C)CC3)CC1`, for which the GI50 was 2.37 µM in the experiment with HOP-62 NSCLC; 1.65 µM with SK-MEL-28 melanoma; 1.75 µM in the experiment with NCI-H226 lung; 1.64 µM in the experiment on SF-268 CNS; 1.73 µM with 786-0 renal; 1.58 µM with SNB-19 CNS. In addition, the GI50 in the experiment on U251 CNS was 1.72 µM. Further, the TGI with HOP-62 NSCLC came to 5.75 µM; with SK-MEL-28 melanoma it was 3.03 µM; in the experiment with NCI-H226 lung, 3.64 µM; in the experiment on SF-268 CNS, 3.13 µM; in the experiment with 786-0 renal, 3.43 µM; with SNB-19 CNS it was 2.99 µM. Further, the TGI in the experiment with U251 CNS turned out to be 3.38 µM.

Turning to `CCOC(=O)C(Cc1c[nH]c2ccc(N)cc12)(NC(C)=O)C(=O)OCC`, the GI50 in the experiment with HOP-62 NSCLC, in the experiment on SK-MEL-28 melanoma, with NCI-H226 lung, with SF-268 CNS, in the experiment with 786-0 renal and in the experiment with SNB-19 CNS was more than 1000 µM each time. The GI50 in the experiment on U251 CNS is more than 1000 µM. The TGI in the experiment with HOP-62 NSCLC, with M14 melanoma, with SK-MEL-28 melanoma, in the experiment with NCI-H226 lung, with SF-268 CNS and with 786-0 renal was more than 1000 µM each time. Moreover, the TGI with SNB-19 CNS and in the experiment on U251 CNS was more than 1000 µM in each case.

With `CC(=O)N[C@H]1C=C[C@@H]2/C=C(C)/C=C/[C@@H](C)[C@H]([C@H](C)[C@H](O)[C@@H](C)NC(C)=O)OC(=O)/C=C/C=C(C)\C=C\[C@]2(C)C1`, the TGI was 4.65 µM and > 45 µM in the experiment with HOP-62 NSCLC; 4.65 µM and > 45 µM in the experiment on SK-MEL-28 melanoma; 4.65 µM and 7.18 µM with NCI-H226 lung; 4.65 µM and > 45 µM in the experiment on SF-268 CNS; 4.65 µM and > 45 µM in the experiment on 786-0 renal; 4.65 µM and > 45 µM with SNB-19 CNS. In addition, the TGI with U251 CNS is 4.65 µM and > 45 µM. Besides, the GI50 was 0.00734 µM and 0.0045 µM in the experiment on M14 melanoma; 0.0306 µM and 0.00647 µM in the experiment on SK-MEL-28 melanoma; 0.0157 µM and 0.0045 µM in the experiment with NCI-H226 lung; 0.126 µM and 0.0322 µM with SF-268 CNS; 0.0242 µM and 0.0045 µM in the experiment with 786-0 renal; 0.256 µM and 0.072 µM in the experiment on SNB-19 CNS. The GI50 in the experiment on U251 CNS was 0.00747 µM and 0.0045 µM.

As for `ClCc1cccc(Cn2cnc3c(NC45CC6CC(CC(C6)C4)C5)ncnc32)c1`, the GI50 was 20.5 µM with HOP-62 NSCLC; 12.1 µM with M14 melanoma; 25 µM with SK-MEL-28 melanoma; 22.9 µM in the experiment with NCI-H226 lung; 12 µM in the experiment on SF-268 CNS; 3.43 µM in the experiment on 786-0 renal. Also, the GI50 in the experiment with SNB-19 CNS is 17.2 µM; in the experiment with U251 CNS it was 14.8 µM. The TGI is 37.5 µM with HOP-62 NSCLC; 27.6 µM in the experiment with M14 melanoma; more than 78.7 µM with SK-MEL-28 melanoma; 69.2 µM in the experiment on NCI-H226 lung; 40.5 µM in the experiment on SF-268 CNS; 25.8 µM in the experiment on 786-0 renal. Besides, the TGI in the experiment on SNB-19 CNS was found to be 44.2 µM; with U251 CNS it was 30.8 µM.

Turning to `O=Cc1ccc(-c2cc(C=O)c(-c3cccs3)[nH]2)s1`, the GI50 in the experiment on HOP-62 NSCLC was more than 100 µM; in the experiment with M14 melanoma, 27.5 µM; with SK-MEL-28 melanoma it was more than 100 µM; in the experiment on SF-268 CNS it was more than 100 µM; with 786-0 renal, more than 100 µM; with SNB-19 CNS, more than 100 µM. For the same molecule, the GI50 in the experiment on U251 CNS was more than 100 µM. Also, the TGI was 72.5 µM and > 100 µM in the experiment on HOP-62 NSCLC; 75 µM and > 100 µM in the experiment on M14 melanoma; 75 µM and > 100 µM in the experiment with SK-MEL-28 melanoma; 40 µM in the experiment with NCI-H226 lung; more than 100 µM in the experiment on SF-268 CNS; 75 µM and > 100 µM with 786-0 renal. Besides, the TGI in the experiment with SNB-19 CNS is 75 µM and > 100 µM; in the experiment with U251 CNS, 62.9 µM and > 100 µM.

Take `COc1ccc(N2C(=O)CC(Cl)C2=O)cc1` (stereo not drawn): the TGI with HOP-62 NSCLC is more than 100 µM; in the experiment with M14 melanoma it was more than 100 µM; with SK-MEL-28 melanoma, 30.2 µM; in the experiment with NCI-H226 lung it was 46.4 µM; in the experiment on SF-268 CNS, more than 100 µM; in the experiment with 786-0 renal it was 32 µM. For the same molecule, the TGI in the experiment with SNB-19 CNS and in the experiment on U251 CNS was more than 100 µM each time.

In the case of `CN1CCN(CCCN)CC1`, the TGI in the experiment with HOP-62 NSCLC, in the experiment on M14 melanoma, in the experiment with SK-MEL-28 melanoma, in the experiment on NCI-H226 lung, with SF-268 CNS and in the experiment on 786-0 renal was more than 100 µM each time. For the same molecule, the TGI with SNB-19 CNS and in the experiment on U251 CNS was more than 100 µM in each case.
